Measured values from patent publication US7704992B2, “Hepatitis C virus inhibitors” (Bristol-Myers Squibb Company, priority 2008, dated 2010).

Test system: HCV 1b-377-neo replicon cells
Test: HCV Replicon assay, HCV 1b genotype
Format: cell-based
Settings: Hepatitis C virus, class symbol, read-out: EC50 range against HCV 1b
Experimental: An HCV Replicon assay was utilized in the present disclosure, and was prepared, conducted and validated as described in commonly owned PCT/US2006/022197 and in O'Boyle et. al. Antimicrob Agents Chemother. 2005 April; 49(4): 1346-53.
HCV 1b-377-neo replicon cells were used to test the currently described compound series as well as cells resistant to compound A containing a Y2065H mutation in NS5A (described in application PCT/US2006/022197). The compounds tested were determined to have more than 10-fold less inhibitory activity on cells containing the mutation than wild-type cells indicating a related mechanism of action between the two compound series. Thus, the compounds of the present disclosure can be effective to inhibit the function of the HCV NS5A protein and are understood to be as effective in combinations as previously described in application PCT/US2006/022197 and commonly owned WO/04014852. Further, the compounds of the present disclosure can be effective against the HCV 1b genotype. It should also be understood that the compounds of the present disclosure can inhibit multiple genotypes of HCV. […] In one embodiment compounds of the present disclosure are active against the 1a, 1b, 2a, 2b, 3a, 4a, and 5a genotypes.

| SMILES | EC50 |
| --- | --- |
| COC(=O)NC(C(=O)N1CCC[C@H]1c1ncc(-c2ccc3c(c2)COCc2cc(-c4cnc([C@@H]5CCCN5C(=O)C(NC(=O)OC)C5CCOCC5)[nH]4)ccc2-3)[nH]1)C1CCOCC1 (stereo partly drawn) [Example 10A, dimethyl (5,7-dihydrodibenzo[c,e]oxepine-3,9-diylbis(1H-imidazole-4,2-diyl(2S)-2,1-pyrrolidinediyl(2-oxo-1-(tetrahydro-2H-pyran-4-yl)-2,1-ethanediyl)))biscarbamate] | 1000 to 99000 pM |
| COC(=O)N[C@H](C(=O)N1CCC[C@H]1c1ncc(-c2ccc3c(c2)C(N(C)C)c2cc(-c4cnc([C@@H]5CCCN5C(=O)[C@@H](NC(=O)OC)C(C)C)[nH]4)ccc2-3)[nH]1)C(C)C [Example 3, methyl ((1S)-1-(((2S)-2-(5-(9-(dimethylamino)-7-(2-((2S)-1-((2S)-2-((methoxycarbonyl)amino)-3-methylbutanoyl)-2-pyrrolidinyl)-1H-imidazol-5-yl)-9H-fluoren-2-yl)-1H-imidazol-2-yl)-1-pyrrolidinyl)carbonyl)-2-methylpropyl)carbamate] | 101 to 999 pM |
| COC(=O)N[C@H](C(=O)N1CCC[C@H]1c1ncc(-c2ccc3c(c2)Cc2cc(-c4cnc([C@@H]5CCCN5C(=O)[C@@H](NC(=O)OC)[C@@H](C)OC)[nH]4)ccc2-3)[nH]1)[C@@H](C)OC [Example 5, methyl ((1S,2R)-2-methoxy-1-(((2S)-2-(5-(7-(2-((2S)-1-(N-(methoxycarbonyl)-O-methyl-L-threonyl)-2-pyrrolidinyl)-1H-imidazol-5-yl)-9H-fluoren-2-yl)-1H-imidazol-2-yl)-1-pyrrolidinyl)carbonyl)propyl)carbamate] | 1 to 100 pM |
| COC(=O)N[C@H](C(=O)N1CCC[C@H]1c1ncc(-c2ccc3c(c2)oc2cc(-c4cnc([C@@H]5CCCN5C(=O)[C@@H](NC(=O)OC)C(C)(C)C)[nH]4)ccc23)[nH]1)C(C)(C)C [Example 20, methyl ((1S)-1-(((2S)-2-(4-(7-(2-((2S)-1-((2S)-2-((methoxycarbonyl)amino)-3,3-dimethylbutanoyl)-2-pyrrolidinyl)-1H-imidazol-4-yl)dibenzo[b,d]furan-3-yl)-1H-imidazol-2-yl)-1-pyrrolidinyl)carbonyl)-2,2-dimethylpropyl)carbamate] | 1 to 100 pM |
| COCC[C@H](NC(=O)OC)C(=O)N1CCC[C@H]1c1ncc(-c2ccc3c(c2)[nH]c2cc(-c4cnc([C@@H]5CCCN5C(=O)[C@H](CCOC)NC(=O)OC)[nH]4)ccc23)[nH]1 [Example 31, methyl ((1S)-3-methoxy-1-(((2S)-2-(5-(7-(2-((2S)-1-(N-(methoxycarbonyl)-O-methyl-L-homoseryl)-2-pyrrolidinyl)-1H-imidazol-5-yl)-9H-carbazol-2-yl)-1H-imidazol-2-yl)-1-pyrrolidinyl)carbonyl)propyl) carbamate] | 1000 to 99000 pM |
| COC(=O)N[C@H](C(=O)N1CCC[C@H]1c1ncc(-c2ccc3c(c2)COCc2cc(-c4cnc([C@@H]5CCCN5C(=O)[C@@H](NC(=O)OC)C(C)C)[nH]4)ccc2-3)[nH]1)C(C)C [Example 8, methyl ((1S)-1-(((2S)-2-(5-(9-(2-((2S)-1-((2S)-2-((methoxycarbonyl)amino)-3-methylbutanoyl)-2-pyrrolidinyl)-1H-imidazol-4-yl)-5,7-dihydrodibenzo[c,e]oxepin-3-yl)-1H-imidazol-2-yl)-1-pyrrolidinyl)carbonyl)-2-methylpropyl)carbamate] | 1 to 100 pM |
| COC(=O)N[C@@H](C)C(=O)N1CCC[C@H]1c1ncc(-c2ccc3c(c2)C2(CCC2)c2cc(-c4cnc([C@@H]5CCCN5C(=O)[C@H](C)NC(=O)OC)[nH]4)ccc2-3)[nH]1 [Example 17] | 1 to 100 pM |
| COCC[C@H](NC(=O)OC)C(=O)N1CCC[C@H]1c1ncc(-c2ccc3c4ccc(-c5cnc([C@@H]6CCCN6C(=O)[C@H](CCOC)NC(=O)OC)[nH]5)cc4n(S(=O)(=O)c4ccccc4)c3c2)[nH]1 [Example 28, methyl ((1S)-3-methoxy-1-(((2S)-2-(5-(7-(2-((2S)-1-(N-(methoxycarbonyl)-O-methyl-L-homoseryl)-2-pyrrolidinyl)-1H-imidazol-5-yl)-9-(phenylsulfonyl)-9H-carbazol-2-yl)-1H-imidazol-2-yl)-1-pyrrolidinyl)carbonyl)propyl)carbamate] | 1 to 100 pM |
| COC(=O)N[C@H](C(=O)N1CCC[C@H]1c1ncc(-c2ccc3c(c2)C(C)(N(C)C)c2cc(-c4cnc([C@@H]5CCCN5C(=O)[C@@H](NC(=O)OC)C(C)C)[nH]4)ccc2-3)[nH]1)C(C)C [Example 13, methyl ((1S)-1-(((2S)-2-(5-(9-(dimethylamino)-7-(2-((2S)-1-((2S)-2-((methoxycarbonyl)amino)-3-methylbutanoyl)-2-pyrrolidinyl)-1H-imidazol-5-yl)-9-methyl-9H-fluoren-2-yl)-1H-imidazol-2-yl)-1-pyrrolidinyl)carbonyl)-2-methylpropyl)carbamate] | 1 to 100 pM |
| COC(=O)N[C@H](C(=O)N1CCC[C@H]1c1ncc(-c2ccc3c4ccc(-c5cnc([C@@H]6CCCN6C(=O)[C@@H](NC(=O)OC)C(C)C)[nH]5)cc4n(S(=O)(=O)c4ccccc4)c3c2)[nH]1)C(C)C [Example 27, methyl ((1S)-1-(((2S)-2-(5-(7-(2-((2S)-1-((2S)-2-((methoxycarbonyl)amino)-3-methylbutanoyl)-2-pyrrolidinyl)-1H-imidazol-5-yl)-9-(phenylsulfonyl)-9H-carbazol-2-yl)-1H-imidazol-2-yl)-1-pyrrolidinyl)carbonyl)-2-methylpropyl)carbamate] | 1 to 100 pM |
| COC(=O)N[C@H](C(=O)N1CCC[C@H]1c1ncc(-c2ccc3c(c2)oc2cc(-c4cnc([C@@H]5CCCN5C(=O)[C@@H](NC(=O)OC)C5CC5)[nH]4)ccc23)[nH]1)C1CC1 [Example 19, dimethyl (dibenzo[b,d]furan-3,7-diylbis(1H-imidazole-4,2-diyl(2S)-2,1-pyrrolidinediyl((1S)-1-cyclopropyl-2-oxo-2,1-ethanediyl)))biscarbamate] | 1 to 100 pM |
| COC(=O)N[C@H](C(=O)N1CCC[C@H]1c1ncc(-c2ccc3c(c2)Cc2cc(-c4cnc([C@@H]5CCCN5C(=O)[C@@H](NC(=O)OC)C(C)C)[nH]4)ccc2-3)[nH]1)C(C)C [Example 4, methyl ((1S)-1-(((2S)-2-(5-(7-(2-((2S)-1-((2S)-2-((methoxycarbonyl)amino)-3-methylbutanoyl)-2-pyrrolidinyl)-1H-imidazol-5-yl)-9H-fluoren-2-yl)-1H-imidazol-2-yl)-1-pyrrolidinyl)carbonyl)-2-methylpropyl)carbamate] | 1 to 100 pM |
| COC(=O)N[C@H](C(=O)N1CCC[C@H]1c1ncc(-c2ccc3c4ccc(-c5cnc([C@@H]6CCCN6C(=O)[C@@H](NC(=O)OC)C(C)C)[nH]5)cc4n(C)c3c2)[nH]1)C(C)C [Example 25, methyl ((1S)-1-(((2S)-2-(5-(7-(2-((2S)-1-((2S)-2-((methoxycarbonyl)amino)-3-methylbutanoyl)-2-pyrrolidinyl)-1H-imidazol-5-yl)-9-methyl-9H-carbazol-2-yl)-1H-imidazol-2-yl)-1-pyrrolidinyl)carbonyl)-2-methylpropyl)carbamate] | 1 to 100 pM |
| CCN(CC)C(C(=O)N1CCC[C@H]1c1ncc(-c2ccc3c(c2)COCc2cc(-c4cnc([C@@H]5CCCN5C(=O)C(c5ccccc5)N(CC)CC)[nH]4)ccc2-3)[nH]1)c1ccccc1 (stereo in doubt) [Example 12, (1S,1′S)-2,2′-(5,7-dihydrodibenzo[c,e]oxepine-3,9-diylbis(1H-imidazole-4,2-diyl(2S)-2,1-pyrrolidinediyl))bis(N,N-diethyl-2-oxo-1-phenylethanamine)] | 101 to 999 pM |

Same assay, conditions: Hepatitis C virus, value in pM, read-out: EC50 value against HCV 1b

| SMILES | EC50 |
| --- | --- |
| COC(=O)N[C@H](C(=O)N1CCC[C@H]1c1ncc(-c2ccc3c(c2)C(C)(C)c2cc(-c4cnc([C@@H]5CCCN5C(=O)[C@@H](NC(=O)OC)C5CC5)[nH]4)ccc2-3)[nH]1)C1CC1 [Example 15, dimethyl ((9,9-dimethyl-9H-fluorene-2,7-diyl)bis(1H-imidazole-5,2-diyl(2S)-2,1-pyrrolidinediyl((1S)-1-cyclopropyl-2-oxo-2,1-ethanediyl)))biscarbamate] | 52 pM |
| COC(=O)N[C@H](C(=O)N1CCC[C@H]1c1ncc(-c2ccc3c(c2)C(=O)c2cc(-c4cnc([C@@H]5CCCN5C(=O)[C@@H](NC(=O)OC)C(C)C)[nH]4)ccc2-3)[nH]1)C(C)C [Example 1, methyl ((1S)-1-(((2S)-2-(5-(7-(2-((2S)-1-((2S)-2-((methoxycarbonyl)amino)-3-methylbutanoyl)-2-pyrrolidinyl)-1H-imidazol-5-yl)-9-oxo-9H-fluoren-2-yl)-1H-imidazol-2-yl)-1-pyrrolidinyl)carbonyl)-2-methylpropyl)carbamate] | 9 pM |

Same assay, conditions: class symbol, read-out: EC50 range against HCV 1b

| SMILES | EC50 |
| --- | --- |
| COCC[C@H](NC(=O)OC)C(=O)N1CCC[C@H]1c1ncc(-c2ccc3c4ccc(-c5cnc([C@@H]6CCCN6C(=O)[C@H](CCOC)NC(=O)OC)[nH]5)cc4n(C)c3c2)[nH]1 [Example 24, methyl ((1S)-3-methoxy-1-(((2S)-2-(5-(7-(2-((2S)-1-(N-(methoxycarbonyl)-O-methyl-L-homoseryl)-2-pyrrolidinyl)-1H-imidazol-5-yl)-9-methyl-9H-carbazol-2-yl)-1H-imidazol-2-yl)-1-pyrrolidinyl)carbonyl)propyl) carbamate] | 101 to 999 pM |
